Source: ChEMBL document CHEMBL1157052, “Novel cyclic-imide peptidomimetics as aminopeptidase N inhibitors. Structure-based design, chemistry and activity evaluation. II” (Eur J Med Chem, 2010)
Active and inactive are the calls of the source. No cut-off for these calls is given here.

Experiments:
HL-60 = assay: Antiproliferative activity against human HL60 cells after 48 hrs by MTT assay; settings: HL-60, 48 h
H22 = assay: Antimetastatic activity against mouse H22 cells transplanted in mouse lung assessed as inhibition of tumor growth on the surface of lungs at 50 mg/kg/day, po for 6 days a week for 2 weeks; type: functional; settings: read-out: TGI
[1] = Antimetastatic activity against human ES2 cells xenografted in mouse lung assessed as inhibition of tumor growth at 50 mg/kg/day, po for 6 days a week for 2 weeks; type: functional; settings: ES-2, read-out: TGI
[2] = molecular target: Aminopeptidase N (Sus scrofa) (UniProt P15145); assay: Inhibition of aminopeptidase N
Chain of Aminopeptidase N (Sus scrofa) (P15145 whole entry, looked up): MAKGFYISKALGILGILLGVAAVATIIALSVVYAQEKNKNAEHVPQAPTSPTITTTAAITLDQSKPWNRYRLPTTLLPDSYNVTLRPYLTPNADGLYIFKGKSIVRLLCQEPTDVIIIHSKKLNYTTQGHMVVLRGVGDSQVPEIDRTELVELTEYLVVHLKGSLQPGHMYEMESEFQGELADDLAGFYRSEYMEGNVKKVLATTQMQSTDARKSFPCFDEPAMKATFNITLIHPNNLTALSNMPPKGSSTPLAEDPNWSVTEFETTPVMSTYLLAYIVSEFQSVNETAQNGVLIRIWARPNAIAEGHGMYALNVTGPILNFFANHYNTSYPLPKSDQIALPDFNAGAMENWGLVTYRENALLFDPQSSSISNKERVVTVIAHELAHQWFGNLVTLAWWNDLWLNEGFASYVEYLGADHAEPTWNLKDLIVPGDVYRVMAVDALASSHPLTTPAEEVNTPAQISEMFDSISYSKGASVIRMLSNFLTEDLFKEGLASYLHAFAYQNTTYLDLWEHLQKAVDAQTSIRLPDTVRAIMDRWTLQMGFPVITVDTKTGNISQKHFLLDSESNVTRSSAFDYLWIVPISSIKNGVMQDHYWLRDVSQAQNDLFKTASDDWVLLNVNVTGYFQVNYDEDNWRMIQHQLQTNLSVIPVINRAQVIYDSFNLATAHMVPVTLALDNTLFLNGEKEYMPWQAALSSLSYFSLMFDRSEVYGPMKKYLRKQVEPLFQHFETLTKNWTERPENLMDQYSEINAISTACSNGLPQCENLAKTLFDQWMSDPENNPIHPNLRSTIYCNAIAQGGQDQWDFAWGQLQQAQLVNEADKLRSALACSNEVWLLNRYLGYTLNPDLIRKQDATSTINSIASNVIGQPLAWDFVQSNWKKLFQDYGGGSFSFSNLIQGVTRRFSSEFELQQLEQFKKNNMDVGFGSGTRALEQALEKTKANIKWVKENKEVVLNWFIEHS

K562 = assay: Antiproliferative activity against human K562 cells at 400 ug/ml after 48 hrs by MTT assay; type: functional, cell-based
[3] = Antimetastatic activity against human ES2 cells xenografted in mouse lung assessed as inhibition of tumor growth at 10 mg/kg/day, po for 6 days a week for 2 weeks; type: functional; settings: ES-2, read-out: TGI

IC50 [2] [µM] | Structure (SMILES) | IC50 (HL-60) [µM] | inhibition in vivo at 50 mg/kg/day (H22) [%] | inhibition in vivo at 50 mg/kg/day [1] [%] | Activity (K562) | inhibition in vivo at 10 mg/kg/day [3] [%]
– | N[C@@H](Cc1ccc(O)cc1)C(=O)N[C@H]1CCC(=O)N(CC(=O)NO)C1=O | 147 | 62.7 | – | – | –
– | CC(C)C[C@H](NC(=O)[C@@H](O)[C@H](N)Cc1ccccc1)C(=O)O [UBENIMEX] | – | 45.4 | 36.2 | – | –
3.1 | COc1cc(C(=O)N[C@H]2CCC(=O)N(CC(=O)NO)C2=O)cc(OC)c1OC | – | – | – | – | –
– | N[C@@H](Cc1ccccc1)C(=O)N[C@H]1CCC(=O)N(CC(=O)NO)C1=O | 105 | 72.9 | – | inactive | 30.9
